{
  "source": "patent US4610817A",
  "about": "“N-acyl derivatives of peptides, their preparation and their use in the treatment of disorders, and agents for this purpose” (BASF Aktiengesellschaft, priority 1983, dated 1986)",
  "origin": "cited, not measured here",
  "tested_on": "tremor, rigor and akinesia in Parkinson patients",
  "conditions": "alone or in combination with L-dopa",
  "note": "Where a SMILES comes first, the peptide text is derived from it.",
  "data": [
    {"smiles": "CC(C)C[C@H](NC(=O)[C@@H]1CCCN1)C(=O)NCC(N)=O", "note": "[MIF, L-Pro-L-Leu-Gly-NH2] (H-Pro-Leu-Gly-NH2)", "values": [
      {"measurement": "clinical effect on Parkinson symptoms", "value": "advantageous effect on tremor, rigor and akinesia"}
    ]}
  ]
}
